# Source: US9855243B2, “Topical anti-inflammatory pharmaceutical composition with zileuton cream formulation” (Qurient Co., Ltd., priority 2013, dated 2018)
# Assay: Solubility of zileuton in solvents at 25° C.(RT)
# Assay type: physicochemical
# Source text: Furthermore, the suitability of other various solvents for solubilizing zileuton was screened. […] Especially, hydrophilics solvents such as alcohols may be preferably used.
compound,measurement,setting,value
"CC(c1cc2ccccc2s1)N(O)C(N)=O (racemic) [Zileuton, (±)-1-(1-(benzo [b]thiophen-2-yl)ethyl)-1-hydroxyurea]",Zileuton Solubility at RT (% w/w),in Caprylocaproyl Polyoxyl-8 Glycerides/Labrasol,10.81-11.42 % w/w
same,Zileuton Solubility at RT (% w/w),in Castor Oil,<0.16 % w/w
same,Zileuton Solubility at RT (% w/w),in Cyclomethicone,<0.06 % w/w
same,Zileuton Solubility at RT (% w/w),in Diethylene Glycol Monoethyl Ether/Transcutol P,17.11-17.62 % w/w
same,Zileuton Solubility at RT (% w/w),in Dimethicone,<0.06 % w/w
same,Zileuton Solubility at RT (% w/w),in Isopropyl Myristate,<0.20 % w/w
same,Zileuton Solubility at RT (% w/w),in Light Mineral Oil,<0.04 % w/w
same,Zileuton Solubility at RT (% w/w),in Medium Chain Triglycerides,<0.21 % w/w
same,Zileuton Solubility at RT (% w/w),in Olive Oil,<0.07 % w/w
same,Zileuton Solubility at RT (% w/w),in Polyglyceryl-6 Dioleate,<0.06 % w/w
same,Zileuton Solubility at RT (% w/w),in Polyglyceryl-10 Mono/Dioleate/Caprol PGE-860,<0.16 % w/w
same,Zileuton Solubility at RT (% w/w),in Polyoxyethylene (20) Sorbitan Monolaurate/Tween 20,8.42-9.24 % w/w
same,Zileuton Solubility at RT (% w/w),in Polyoxyl 40 Hydrogenated Castor Oil/Kolliphor RH40,<0.37 % w/w
same,Zileuton Solubility at RT (% w/w),in Propylene Glycol Dicaprylocaprate,<0.20 % w/w
same,Zileuton Solubility at RT (% w/w),in Safflower Oil,<0.07 % w/w
same,Zileuton Solubility at RT (% w/w),in Squalane,<0.04 % w/w
same,Zileuton Solubility at RT (% w/w),in Triacetin,0.50-0.72 % w/w
